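Five concentrations, 48 hours, 96-well plates. Abbreviation: GI50, concentration required for 50% inhibition of growth. TGI: total growth inhibition.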
What was measured:
Experiment in all cases: inhibition of tumour cell growth, NCI panel, 48 h
[1] = test system: A498 renal
[2] = test system: HCC-2998 colon
[3] = test system: HOP-62 NSCLC
[4] = test system: HS 578T breast
[5] = test system: K-562 leukemia
[6] = test system: NCI-H226 lung
[7] = test system: NCI-H460 lung
[8] = test system: NCI/ADR-RES ovarian
[9] = test system: OVCAR-5 ovarian
[10] = test system: SF-268 CNS
[11] = test system: SF-295 CNS
[12] = test system: SF-539 CNS
[13] = test system: SK-MEL-2 melanoma
[14] = test system: SK-MEL-28 melanoma
[15] = test system: U251 CNS
[16] = test system: UO-31 renal

Compound	TGI [1] [µM]	TGI [2] [µM]	TGI [3] [µM]	TGI [4] [µM]	TGI [5] [µM]	TGI [6] [µM]	TGI [7] [µM]	TGI [8] [µM]	TGI [9] [µM]	TGI [10] [µM]	TGI [11] [µM]	TGI [12] [µM]	TGI [13] [µM]	TGI [14] [µM]	TGI [15] [µM]	TGI [16] [µM]	GI50 [6] [µM]
C=CCN1C(=O)/C(=C/c2ccc(Cl)cc2)N=C1SC/C=C/C	> 100	> 100	> 100	> 100	> 100	> 100	> 100	> 100	> 100	> 100	> 100	> 100	68.2	> 100	84.8	> 100	
CCSc1nnc(Sc2c3ccccc3nc3ccccc23)s1	> 62.4	25.3	> 100	> 100	> 100	> 78.9	42.5	> 64.2	43.4	> 56.4	> 100	21.9	56.2	> 59.1	> 57.9	23.7	
CCCN(CCc1ccc(-c2ccccc2)cc1)CCc1ccc2n[nH]nc2c1	36.2	19.7	26.3	51.8	18.4	36.7	22.1	47	33.6	48.7	27.5	24	33.4	13.6	37.6	22.4	
O=c1[nH]c(=O)n(C/C=C/CO)nc1Br	> 100	> 100	> 100	> 100		> 100	> 100	> 100	> 100	> 100	> 100	> 100	> 100	> 100	> 100	> 100	
Cc1ccc(S(=O)(=O)NC(=O)NCc2ccc(S(N)(=O)=O)cc2)cc1	> 100	> 100	> 100	> 100	> 100	> 100	> 100	> 100	> 100	> 100	> 100	> 100	> 100	> 100	> 100	> 100	
COc1ccc(CC2Cc3ccccc3CCN2)cc1OC (configuration not stated)	> 50	> 50	> 50	> 50	> 50	> 50	> 50	> 50	> 50	> 50	> 50	> 50	> 50	> 50	> 50	> 50	
COc1cc2c(cc1C)NC(=O)/C2=C/c1cccnc1	24.6	8.28	30.5	97.2	40.2	24.3	35.4	42	27.9	41	40.5	> 84.7	46.5	> 100	> 52.5	26.2	10.9

Source: PubChem BioAssay (NCI)
